# Key:
# [1] = system: AMPK phosphorylation in human neural stem cells; test: AMPK phosphorylation level by western blot; assay type: cell-based; details: Aβ 5 μM pre-treatment 30 minutes, PL201 30 PM, 72 hours
# Protocol: The changes of mitochondrial function are closely related to the regulation of metabolism signaling including AMPK, which is also widely considered to be closely related to the pathogenesis of AD. In this example, the inventors have explored whether PL201 has an effect on metabolism signaling by detecting the level of AMPK phosphorylation in human neural stem cells via western blot.
# Human neural stem cells (3 L) were cultured in DMEM/F12 (containing N2/B27 and 10 ng/ml bFGF), plated to 12 well plates and cultured for 24 hours, then Aβ (5 μM) was added to pre-treat the cells for 30 minutes, and then PL201 ([…]) was added. After co-incubation for 72 hours, the cells were washed with PBS and lysed with Laemmli's sample buffer, then SDS PAGE electrophoresis was performed to detect associated protein bands with rabbit anti-phospo-AMPK and total AMPK antibody.
# [2] = system: neuroblastoma cells SK-N-SH; test: Total Aβ in supernatant of SK-N-SH cells by ELISA; assay type: cell-based; details: 30, 100, 300 μM, 24 hours
# Protocol: Culture of neuroblastoma cells SK-N-SH and Aβ detection: SK-N-SH cells were cultured in DMEM, plated to 24 well plates and cultured for 24 hours, then PL201 (0, 30, 100, and 300 μM) was added. After co-incubation for 24 hours, the protein level of total Aβ in supernatant was detected by ELISA.
# Culture of neuroblastoma cells SK-N-SH and Aβ detection: SK-N-SH cells were cultured in DMEM, plated to 24 well plates and cultured for 24 hours, then PL202 (0, 30, and 100 μM) was added. After co-incubation for 24 hours, protein level of total Aβ in supernatant was detected by ELISA.
# Culture of neuroblastoma cells SK-N-SH and Aβ detection: SK-N-SH cells were cultured in DMEM, plated to 24 well plates and cultured for 24 hours, then PL171 (300 μM) was added. After co-incubation for 24 hours, protein level of total Aβ in supernatant was detected by ELISA.
# Culture of neuroblastoma cells SK-N-SH and Aβ detection: SK-N-SH cells were cultured in DMEM, plated to 24 well plates and cultured for 24 hours, then PL172 (300 μM) was added. After co-incubation for 24 hours, protein level of total Aβ in supernatant was detected by ELISA.
# AD mice [3] = test: Aβ plaques in brain, thioflavin S staining; assay type: in vivo, mouse; details: 10 mg/kg intragastrically, 90 days, vs control group
# Protocol: (§1) The inventors conducted PL201 administration experiments on AD mice (5-6 months aged AD mice were selected). Each mouse was intragastrically administrated 100 μl PL201, and the dosage was 10 mg/kg mouse body weight. Moreover, mice in the control group were administrated 100 μl water once daily for 90 days, and from Day 60 were intraperitoneally injected with 5-bromo-2′-deoxyuridine (BrdU) of 50 mg/kg mouse body weight once daily for 7 days. After 90 days of administration, the mice were perfused with PFA after anesthesia, and the whole brain was taken for further experiments.
# The inventors performed frozen sectioning coronally with a thickness of 30 μm on the whole brain sample of AD mice after administration in example 2, and the slices were stained with thioflavin S and DAPI. The stained brain slices were then photographed with Olympus FV100i or Leica SP-8.
# AD mice [4] = test: Neurogenesis in vivo, BrdU/NeuN staining of hippocampus; design: species or system mouse; details: 10 mg/kg intragastrically once daily, 90 days, vs control group
# Protocol: as §1
# For the obtained whole brain, a mature neuron marker NeuN in the hippocampus of mice was detected: The brain of mouse which had been perfused with PFA was then fixed in 4% PFA for 24 hours, and then kept for 72 hours in 30% sucrose for cryoprotection. After the treatment was completed, the region of cerebellum was removed, and the olfactory bulb was placed upright on the filter paper and frozen at −80° C. for at least 24 hours. The frozen sectioning was performed vertically and longitudinally with a thickness of 30 μm. A total of 8×9×=72 slices (2.16 mm) including DG portion were cut and arranged in slicing order. One slice was taken from every 8 slices and combined into a group of brain slices for staining. […] The number of single or double positive cells was analyzed by Image Pro Plus software. […]
# [5] = system: APP/PS1 transgenic mice (AD mice); test: Morris water maze test; assay type: in vivo, mouse; details: 10 mg/kg intragastrically daily, 90 days, vs model group
# Protocol: Twenty 5-6 months aged, male APP/PS1 transgenic mice (AD mice) were selected, and were divided into a model group and a polysaccharide administration group randomly by random number table method. PL201 was intragastrically administered daily (10 mg/kg mouse body weight), meanwhile, 10 non-transgenic mice were used as a negative control group (without PL201 administration). After 90 days of consecutive administration, Morris water maze behavior test was used to detect the effects of PL201 on learning and cognitive function of APP/PS1 mice.
# Classic Morris water maze test procedure was used in the test, which includes two parts: i.e., the place navigation task and the spatial probe task. The test lasted for 7 days, and the spatial probe task was added at Day 4 and Day 7.
# It can be seen from the test results in FIG. 1 that the escape latency of all the three groups of animals after 3 days of training was shortened in the place navigation task, illustrating that mice in each group can successfully complete the spatial learning task of the water maze. The escape latency was used as a test indicator.
smiles,measurement,setting,value
"COc1cc(/C=C/C(=O)OC2OC(C)C(O)C(O)C2O)ccc1O [PL201, (α-L-rhamnopyranosyl) ferulic acid ester]",AMPK phosphorylation level,[1],reduced the extent of this decline
same,Aβ production (total Aβ in supernatant),[2],significantly inhibited
same,Aβ plaques in brain,AD mice [3],less Aβ plaques
same,BrdU/NeuN double-positive newborn neurons in hippocampus,AD mice [4],more BrdU/NeuN double-positive newborn neurons
same,learning and memory abilities (escape latency),[5],significantly improved

# Reference: patent US11643428B2, “Therapeutic drug for neurodegenerative disease and application thereof” (SHANGHAI PHARMACEUTICALS HOLDING CO., LTD., priority 2018, dated 2023)
